Measured values: PubChem BioAssay AID2060501 (Molecular Pharmacology Branch, DTP, NCI, 2025)

Tested on: 282377-053-R-J1-PDC complex spheroids, viability
Assay: Anticancer human tumor 282377-053-R-J1-PDC patient-derived colon adenocarcinoma cell line growth inhibition [GQUAD]
Settings: for IC50: curve of first compound; for viability, T/C: stronger effect = lower value
Outline: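 Viability of tumor cells grown as complex spheroids with endothelial and stromal cells, exposed to drug combinations. Top concentration at or near clinical Cmax (else 10 microM), diluted in half-log increments.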

[1] = second compound 0.0316 µM, first compound 0.0316 µM
[2] = second compound 0.0316 µM, first compound 0.1 µM
[3] = second compound 0.0316 µM, first compound 0.316 µM
[4] = second compound 0.0316 µM, first compound 1 µM
[5] = second compound 0.0316 µM, first compound 3.16 µM
[6] = second compound 0.0316 µM, first compound 10 µM
[7] = second compound 0.1 µM, first compound 0.0316 µM
[8] = second compound 0.1 µM, first compound 0.1 µM
[9] = second compound 0.1 µM, first compound 0.316 µM
[10] = second compound 0.1 µM, first compound 1 µM
[11] = second compound 0.1 µM, first compound 3.16 µM
[12] = second compound 0.1 µM, first compound 10 µM
[13] = second compound 0.316 µM, first compound 0.0316 µM
[14] = second compound 0.316 µM, first compound 0.1 µM
[15] = second compound 0.316 µM, first compound 0.316 µM
[16] = second compound 0.316 µM, first compound 1 µM
[17] = second compound 0.316 µM, first compound 3.16 µM
[18] = second compound 0.316 µM, first compound 10 µM
[19] = second compound 1 µM, first compound 0.0316 µM
[20] = second compound 1 µM, first compound 0.1 µM
[21] = second compound 1 µM, first compound 0.316 µM
[22] = second compound 1 µM, first compound 1 µM
[23] = second compound 1 µM, first compound 3.16 µM
[24] = second compound 1 µM, first compound 10 µM
[25] = second compound 3.16 µM, first compound 0.0316 µM
[26] = second compound 3.16 µM, first compound 0.1 µM
[27] = second compound 3.16 µM, first compound 0.316 µM
[28] = second compound 3.16 µM, first compound 1 µM
[29] = second compound 3.16 µM, first compound 3.16 µM
[30] = second compound 3.16 µM, first compound 10 µM
[31] = second compound 10 µM, first compound 0.0316 µM
[32] = second compound 10 µM, first compound 0.1 µM
[33] = second compound 10 µM, first compound 0.316 µM
[34] = second compound 10 µM, first compound 1 µM
[35] = second compound 10 µM, first compound 3.16 µM
[36] = second compound 10 µM, first compound 10 µM
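Also: spheroids exposed to compounds for 7 days before readout.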
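For viability, T/C in this document: percent of vehicle DMSO control viability with 100% = untreated-like growth.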

For `O=C(NO)c1cnc(N2CCN(S(=O)(=O)c3ccc4ccccc4c3)CC2)nc1` + Cc1[nH]c2ccc(F)cc2c1-c1nc2c3cccnc3c3ncccc3c2[nH]1, the IC50 (second compound 0.0316 µM) was 56.3 nM, the IC50 (second compound 0.1 µM) was 55.3 nM and the IC50 (second compound 0.316 µM) was 45.2 nM. The IC50 (second compound 1 µM) was 40.2 nM, the IC50 (second compound 3.16 µM) was under 31.6 nM and the IC50 (second compound 10 µM) was under 31.6 nM. For the same molecule, the viability, T/C [1] was 78%, the viability, T/C [2] was 17.6% and the viability, T/C [3] was 18.6%. It also gave a viability, T/C [4] of 19.8%, a viability, T/C [5] of 24% and a viability, T/C [6] of 30.6%. The viability, T/C [7] was 78%, the viability, T/C [8] was 18.6% and the viability, T/C [9] was 16.4%. The viability, T/C [10] was 18.6%, the viability, T/C [11] was 21.2% and the viability, T/C [12] was 26.9%. The viability, T/C [13] was 63.6%, the viability, T/C [14] was 18.4% and the viability, T/C [15] was 17.1%. For the same molecule, the viability, T/C [16] was 18.1%, the viability, T/C [17] was 21.4% and the viability, T/C [18] was 22.9%. The viability, T/C [19] was 58.7%, the viability, T/C [20] was 15.1% and the viability, T/C [21] was 19.3%. For the same molecule, the viability, T/C [22] was 13.7%, the viability, T/C [23] was 16.1% and the viability, T/C [24] was 21.8%. The viability, T/C [25] was 30.5%, the viability, T/C [26] was 7.85% and the viability, T/C [27] was 7.14%. The viability, T/C [28] was 6.02%, the viability, T/C [29] was 6.61% and the viability, T/C [30] was 7.81%. The viability, T/C [31] was 19.7%, the viability, T/C [32] was 7.83% and the viability, T/C [33] was 5.03%. For the same molecule, the viability, T/C [34] was 6.51%, the viability, T/C [35] was 4.71% and the viability, T/C [36] was 7.67%.
Molecule `CC1COCCN1c1cc(C2(O)CC3CCC(C2)O3)c2cnn(-c3ccn[nH]3)c2n1` (centres undefined) + CN(C)c1ccc(Nc2c3ccc(NC(=O)CCN4CCCC4)cc3nc3cc(NC(=O)CCN4CCCC4)ccc23)cc1 has an IC50 (second compound 0.0316 µM) of 730 nM, an IC50 (second compound 0.1 µM) of 425 nM and an IC50 (second compound 0.316 µM) of 632 nM. The IC50 (second compound 1 µM) was 649 nM, the IC50 (second compound 3.16 µM) was 825 nM and the IC50 (second compound 10 µM) was 734 nM. It also gave a viability, T/C [1] of 93.4%, a viability, T/C [2] of 81.5% and a viability, T/C [3] of 65.1%. For the same molecule, the viability, T/C [4] was 44.9%, the viability, T/C [5] was 28.1% and the viability, T/C [6] was 20.9%. It also gave a viability, T/C [7] of 82.5%, a viability, T/C [8] of 87.5% and a viability, T/C [9] of 55.4%. For the same molecule, the viability, T/C [10] was 37.3%, the viability, T/C [11] was 37.6% and the viability, T/C [12] was 22.6%. It also gave a viability, T/C [13] of 87.2%, a viability, T/C [14] of 92.6% and a viability, T/C [15] of 58.3%. The viability, T/C [16] was 42.3%, the viability, T/C [17] was 34.8% and the viability, T/C [18] was 20.6%. It also gave a viability, T/C [19] of 102%, a viability, T/C [20] of 89% and a viability, T/C [21] of 63.6%. It also gave a viability, T/C [22] of 41%, a viability, T/C [23] of 29.8% and a viability, T/C [24] of 21.5%. It also gave a viability, T/C [25] of 81.9%, a viability, T/C [26] of 81.2% and a viability, T/C [27] of 80.9%. The viability, T/C [28] was 43.7%, the viability, T/C [29] was 33.3% and the viability, T/C [30] was 23.4%. The viability, T/C [31] was 93%, the viability, T/C [32] was 72.8% and the viability, T/C [33] was 86.6%. It also gave a viability, T/C [34] of 37.5%, a viability, T/C [35] of 28.6% and a viability, T/C [36] of 21.3%.
